Test results from patent US11214803B2, “Modulators of YAP1 expression” (Ionis Pharmaceuticals, Inc., priority 2019, dated 2022).
Strand notation (5' to 3'): a small letter for the sugar, then the base; units joined by * are phosphorothioate-linked, units joined directly phosphodiester-linked; [ ] holds rarer units or linkages, { } end groups; capitals alone tell only the bases. k = constrained ethyl (cEt); [5mC] = 5-methylcytosine; d = 2'-deoxy (DNA)

What was measured:
Yap1 mRNA [1] = assay: Dose-dependent inhibition of human Yap1 in A-431 cells (Example 8, 10,000 cells per well, RTS4814); assay type: cell-based; settings: free uptake, approximately 48 hours, RTS4814; for Yap1 mRNA, % UTC: A-431 cells, 10,000 cells per well
In short: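 Yap1 mRNA, normalized to RIBOGREEN total RNA and expressed as % untreated control, was read with RTS4814 about 48 h after free-uptake oligonucleotide treatment of A-431 cells at 10,000 cells/well. IC50 derived by linear regression of log/linear data.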

Yap1 mRNA [2] = assay: Dose-dependent inhibition of human Yap1 in SNU-449 cells (Example 9, RTS36584); assay type: cell-based; settings: free uptake; for % UTC (Yap1 mRNA): approximately 48 hours
In short: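 Read-out was Yap1 mRNA (primer-probe RTS36584) normalised to total RNA by RIBOGREEN, given as % of untreated cells, with IC50 fitted by linear regression of log/linear data. Oligonucleotides were dosed by free uptake to SNU-449 cells, 10,000/well, for ~48 h.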

[3] = Tolerability in CD-1 mice, plasma chemistry markers (Example 18); assay type: in vivo; settings: male CD-1 mice, 50 mg/kg s.c. twice a week (total of 9 treatments), day 34
Protocol: CD-1 mice were treated with modified oligonucleotides selected from studies described above and evaluated for changes in the levels of various plasma chemistry markers.
(§1) Groups of four male CD-1 mice at 5-6 weeks of age (obtained from Charles River) were injected subcutaneously twice a week for four weeks (for a total of 9 treatments) with 50 mg/kg of modified oligonucleotides. One group of male CD-1 mice was injected with PBS. Mice were euthanized on day 34 post start of treatment (24 hours following the final administration).

[4] = Tolerability in CD-1 mice, body and organ weights (Example 18); assay type: in vivo; settings: male CD-1 mice, 50 mg/kg s.c. twice a week (total of 9 treatments), end of study (day 34)
Protocol: as §1
(§2) Body weights of CD-1 mice were measured at the end of the study, and the average body weight for each group is presented in the table below. Modified oligonucleotides that caused any changes in organ weights outside the expected range for modified oligonucleotides were excluded from further studies.

[5] = Tolerability in Sprague-Dawley rats, plasma chemistry markers (Example 20); assay type: in vivo; settings: male Sprague-Dawley rats, 50 mg/kg s.c. weekly for 6 weeks (7 doses), 48 hours after last dose
Protocol: Sprague-Dawley rats are a multipurpose model used for safety and efficacy evaluations. The rats were treated with Ionis modified oligonucleotides from the studies described in the Examples above and evaluated for changes in the levels of various plasma chemistry markers.

[6] = Tolerability in Sprague-Dawley rats, body and organ weights (Example 20); assay type: in vivo; settings: male Sprague-Dawley rats, 50 mg/kg s.c. weekly for 6 weeks (7 doses)
Protocol: Terminal body weight was measured prior to necropsy. Ionis oligonucleotides that caused any changes in organ weights outside the expected range for modified oligonucleotides were excluded from further studies.

[7] = Tolerability in Sprague-Dawley rats, kidney function, urine total protein to creatinine ratio (Example 20); settings: male Sprague-Dawley rats, 50 mg/kg subcutaneously weekly for 6 weeks (total 7 doses)
Protocol: Male Sprague-Dawley rats were maintained on a 12-hour light/dark cycle and fed ad libitum with Purina normal rat chow. Groups of 4 Sprague-Dawley rats each were weekly injected subcutaneously with 50 mg/kg of Ionis oligonucleotide for 6 weeks (total 7 doses). Forty-eight hours after the last dose, the rats were euthanized; and organs, urine and plasma were harvested for further analysis.
To evaluate the effect of Ionis oligonucleotides on kidney function, urinary levels of total protein and creatinine were measured using an automated clinical chemistry analyzer (Hitachi Olympus AU400c, Melville, N.Y.).

Yap1 mRNA [8] = assay: Dose-dependent inhibition of human Yap1 in A-431 cells (Example 7, 10,000 cells per well, RTS36584); assay type: cell-based; settings: free uptake; for Yap1 mRNA, % UTC: A-431 cells 10,000 cells per well, 48 hours
In short: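 Yap1 mRNA was expressed as percent of untreated control after normalization to total RNA (RIBOGREEN), and IC50 was derived by log/linear linear regression. The read-out used primer-probe set RTS36584 roughly 48 hours after free-uptake dosing of oligonucleotides into A-431 cells (10,000 cells/well).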

[9] = Tolerability in Balb/c mice, plasma chemistry markers (Example 13); assay type: in vivo; settings: male Balb/c mice, 50 mg/kg s.c. twice a week for four weeks (8 treatments), day 25
Protocol: Balb/c mice were treated with modified oligonucleotides selected from studies described above and evaluated for changes in the levels of various plasma chemistry markers.
as §1, with “of” for “of four”, “Balb/c” for “CD-1”, “4-6” for “5-6”, “Taconic)” for “Charles River)”, “8” for “9”, “25” for “34”

[10] = Tolerability in Balb/c mice, body and organ weights (Example 13); assay type: in vivo; settings: male Balb/c mice, 50 mg/kg s.c. twice a week for four weeks (8 treatments), end of study (day 25)
Protocol: as §1, with “of” for “of four”, “Balb/c” for “CD-1”, “4-6” for “5-6”, “Taconic)” for “Charles River)”, “8” for “9”, “25” for “34”
as §2, with “Balb/c” for “CD-1”

[11] = Cynomolgus monkey tolerability, body and organ weight measurements (Example 34); assay type: in vivo; settings: cynomolgus monkeys, 35 mg/kg subcutaneously, loading doses days 1, 3, 5, 7, then once per week
Protocol: Cynomolgus monkeys were treated with Ionis modified oligonucleotides selected from studies described in the Examples above. Modified oligonucleotide tolerability was evaluated.
During the study period, the monkeys were observed twice daily for signs of illness or distress. Any animal experiencing more than momentary or slight pain or distress due to the treatment, injury or illness was treated by the veterinary staff with approved analgesics or agents to relieve the pain after consultation with the Study Director. Any animal in poor health or in a possible moribund condition was identified for further monitoring and possible euthanasia. Scheduled euthanasia of the animals was conducted on day 86 approximately 48 hours after the last dose by exsanguination while under deep anesthesia. The protocols described in the Example were approved by the Institutional Animal Care and Use Committee (IACUC).
To evaluate the effect of Ionis oligonucleotides on the overall health of the animals, body and organ weights were measured. Terminal body weight was measured prior to necropsy.

[12] = Cynomolgus monkey tolerability, pro-inflammatory proteins analysis, Complement C3 and CRP (Example 34); assay type: in vivo; settings: cynomolgus monkeys, 35 mg/kg subcutaneously, day 42 pre-dose and 24 hours post-dose
Protocol: To evaluate any inflammatory effect of Ionis oligonucleotides in cynomolgus monkeys, blood samples were taken for analysis. The monkeys were fasted overnight prior to blood collection. On day 42 (pre-dose and 24 hours post-dose), approximately 0.8 mL of blood was collected from each animal and put into tubes without anticoagulant for serum separation. […] Complement C3 were measured using a Toshiba 120 FR NEO chemistry analyzer (Toshiba Co., Japan). […] Another marker of inflammation, C-Reactive Protein (CRP) was tested together with the clinical chemistry parameters tested for liver function above.

[13] = Cynomolgus monkey tolerability, hematology (Example 34); assay type: in vivo, cynomolgus monkeys; settings: cynomolgus monkeys, 35 mg/kg subcutaneously, blood samples day 44
Protocol: To evaluate any effect of Ionis oligonucleotides in cynomolgus monkeys on hematologic parameters, blood samples of approximately 0.5 mL of blood was collected from each of the available study animals on day 44. The samples were collected in tubes containing K2-EDTA. Samples were analyzed for red blood cell (RBC) count, Hemoglobin (HGB), Hematocrit (HCT), Mean corpuscular volume (MCV), mean corpuscular hemoglobin (MCH), mean corpuscular hemoglobin concentration (MCHC), RBC Distribution Width (RCDW), reticulocyte count (Retic), platelet count (PLT), mean platelet volume (MPV), white blood cells (WBC) count, individual white blood cell counts, such as that of monocytes (MON), neutrophils (NEU), lymphocytes (LYM), eosinophils (EOS), basophils (BAS), and large unstained cells (LUC) using an ADVIA2120i hematology analyzer (Siemens, USA).

[14] = Cynomolgus monkey tolerability, coagulation (Example 34); assay type: in vivo; settings: cynomolgus monkeys, 35 mg/kg subcutaneously, blood samples day 44
Protocol: To evaluate effect of Ionis modified oligonucleotides on coagulation in cynomolgus monkeys, blood samples of approximately 0.9 mL were collected from each of the available study animals on day 44. The samples were collected in tubes containing 3.2% sodium citrate. Coagulation parameters tested include Activated partial thromboplastin time (APTT), prothrombin time (PT) and Figrinogen (FIB).

SNU449 xenograft tumor = assay: Tumor volume in SNU449 xenograft tumor model, alone and in combination with sorafenib (second Example 30); assay type: in vivo, human; settings: SNU449 xenograft in mice
Protocol: Modified oligonucleotides described in the studies above were tested in a hepatocellular carcinoma SNU449 xenograft tumor model. […] A control oligonucleotide 792169, described herein above, was also tested.
Five million SNU449 cells in 30% matrigel were implanted subcutaneously into the fatpads of female NOD.Cg-Prkdcscid II2rgtmlWjl/SzJ mice (from Jackson Laboratory) at 4-6 weeks of age. 43 days post implantation (when tumors had reached approximately 100 mm^3 in size), groups of eight mice each were administered with 50 mg/kg modified oligonucleotide daily for 10 days (loading dose), following which they were administered with 50 mg/kg modified oligonucleotide four times a week for one week, following which they were dosed with 50 mg/kg modified oligonucleotide thrice weekly until the end of the study. […] Animals were sacrificed, and tumors were collected on day 119 post implantation.
Tumor volumes were also measured at the indicated days in the table below.

ERK1/2 = assay: Measurement of ERK activation (pERK/ERK) in SNU449 xenograft model with sorafenib (second Example 30); assay type: in vivo, human; settings: SNU449 xenograft in mice, combination therapy compared with sorafenib treatment alone
Protocol: Five million SNU449 cells in 30% matrigel were implanted subcutaneously into the fatpads of female NOD.Cg-Prkdcscid II2rgtmlWjl/SzJ mice (from Jackson Laboratory) at 4-6 weeks of age. 43 days post implantation (when tumors had reached approximately 100 mm^3 in size), groups of eight mice each were administered with 50 mg/kg modified oligonucleotide daily for 10 days (loading dose), following which they were administered with 50 mg/kg modified oligonucleotide four times a week for one week, following which they were dosed with 50 mg/kg modified oligonucleotide thrice weekly until the end of the study.
Protein analysis was carried out using standard procedures. […] ERK protein levels were compared to internal control GAPDH. […] The secondary antibody used was donkey anti-rabbit NA934, GE Healthcare. pERK/ERK levels were calculated relative to PBS control to determine % activation of ERK1/2.

[15] = Cynomolgus monkey tolerability, urine analysis (Example 34); settings: cynomolgus monkeys, 35 mg/kg subcutaneously, day 44
Protocol: (§3) Prior to the study, the monkeys were kept in quarantine during which the animals were observed daily for general health. The monkeys were 2-4 years old and weighed 2-4 kg. Eleven groups of 4 randomly assigned male cynomolgus monkeys each were injected subcutaneously with Ionis oligonucleotide or saline in a clock-wise rotation between four different sites on the back. Following loading doses on days 1, 3, 5 and 7, the monkeys were dosed once per week (on days 14, 21, 28, 35, and 42) with 35 mg/kg of Ionis oligonucleotide.
Food was removed overnight the day before fresh urine collection, but water was supplied. Fresh urine samples for urinalysis and urine chemistry were collected from all animals using a clean cage pan on wet ice (first in the morning) on day 44. Urinalysis/Urine Chemistry parameters creatinine (UCRE), microprotein (UTP), urine microalbumin (UALB), and protein/creatinine (P/C) ratio were measured using a Toshiba 120FR automated chemistry analyzer (Toshiba Co., Japan).

[16] = Cynomolgus monkey tolerability, kidney and liver function markers (Example 34); settings: cynomolgus monkeys, 35 mg/kg subcutaneously, blood samples day 44
Protocol: as §3
To evaluate the effect of Ionis oligonucleotides on hepatic and kidney function, blood samples were collected from all the study groups on day 44. The monkeys were fasted overnight prior to blood collection. Blood was collected in tubes without anticoagulant for serum separation. The tubes were kept at room temperature for a minimum of 90 minutes and then centrifuged at 3000 rpm for 10 minutes to obtain serum. Levels of various liver function markers were measured using a Toshiba 200FR NEO chemistry analyzer (Toshiba Co., Japan).

1076481 (k[5mC]*kT*kA*dA*dG*dT*dA*dA*dG*dG*dT*dT*dT*k[5mC]*k[5mC]*k[5mC]) [compound 1076481]
Yap1 mRNA, % UTC (Yap1 mRNA [1]; 31.3 nM): 21 % UTC | Yap1 mRNA, % UTC (Yap1 mRNA [1]; 125.0 nM): 4 % UTC | Yap1 mRNA, % UTC (Yap1 mRNA [1]; 500.0 nM): 2 % UTC | Yap1 mRNA, % UTC (Yap1 mRNA [1]; 2000.00 nM): 3 % UTC | IC50 (Yap1 mRNA [1]; A-431 cells, linear regression on log/linear plot): < 20 nM | % UTC (Yap1 mRNA) (Yap1 mRNA [2]; 31.3 nM): 86 % UTC | % UTC (Yap1 mRNA) (Yap1 mRNA [2]; 125.0 nM): 40 % UTC | % UTC (Yap1 mRNA) (Yap1 mRNA [2]; 500.0 nM): 15 % UTC | % UTC (Yap1 mRNA) (Yap1 mRNA [2]; 2000.00 nM): 3 % UTC | IC50 (Yap1 mRNA [2]; linear regression on a log/linear plot): 100 nM | ALT [3]: 71 U/L | AST [3]: 121 U/L | BUN [3]: 23 mg/dL | TBIL [3]: 0.23 mg/dL | Kidney weight [4]: 0.57 g | Liver weight [4]: 2.06 g | Spleen weight [4]: 0.23 g | body weight [4]: 39 g | ALB [5]: 2.74 g/dL | ALT [5]: 50 U/L | AST [5]: 91 U/L | BUN [5]: 49 mg/dL | TBIL [5]: 0.13 mg/dL | Kidney weight ([6]; end of study): 2.6 g | Liver weight ([6]; end of study): 14 g | Spleen weight ([6]; end of study): 2.1 g | body weight ([6]; terminal, prior to necropsy): 367 g | URINE P/C ratio (total protein to creatinine ratio) [7]: 5

958371 (antisense kA*k[5mC]*k[5mC]*dA*dA*d[5mC]*dT*dA*dT*dT*dA*d[5mC]*dT*kT*k[5mC]*kA) [compound 958371]
Yap1 mRNA, % UTC (Yap1 mRNA [8]; Table 56, 15.6 nM): 89 % UTC | Yap1 mRNA, % UTC (Yap1 mRNA [8]; Table 56, 62.5 nM): 57 % UTC | Yap1 mRNA, % UTC (Yap1 mRNA [8]; Table 56, 4000.00 nM): 11 % UTC | IC50 (Yap1 mRNA [8]; Table 56, A-431 cells 10,000 cells per well): 100 nM | ALT [9]: 249 U/L | AST [9]: 199 U/L | BUN [9]: 30 mg/dL | TBIL [9]: 0.24 mg/dL | Kidney weight [10]: 0.32 g | Liver weight [10]: 1.31 g | Spleen weight [10]: 0.15 g | body weight [10]: 23 g

ION 1198440 (AAGTGTATGTCAGAAG; cEt, 2'-MOE, 5-methylcytosine, phosphorothioate modifications, further chemistry not given here)
effect on body and organ weights [11]: well tolerated | inflammation (Complement C3) [12]: did not cause any inflammation | effect on hematologic parameters [13]: well tolerated | effect on coagulation parameters [14]: well tolerated | tumor volume (SNU449 xenograft tumor; 50 mg/kg modified oligonucleotide alone): significant reduction in tumor volume | tumor volume, combination with sorafenib (SNU449 xenograft tumor; 50 mg/kg modified oligonucleotide plus 30 mg/kg sorafenib orally 7 times a week): further reduction in tumor volume | ERK1/2 activation (pERK/ERK relative to PBS control), combination with sorafenib (ERK1/2): significant decrease in ERK1/2 activation | urine chemistry markers [15]: well tolerated | effect on liver function [16]: well tolerated
